Test results reported in PMC6114901, “An automated screening method for detecting compounds with goitrogenic activity using transgenic zebrafish embryos” (PLoS ONE, 2018).

Legend:
zebrafish embryos = assay: in vivo; conditions: for LC10: S2 Fig, unit not given, in µM; for Slope: mortality concentration-response curve
in vivo = conditions: zebrafish, in vivo
[1] = ref chemspider (http://www.chemspider.com); cited from earlier work
[2] = 72 hpf, 77.18 µmol/L, replicate 2, 11 embryos
[3] = 72 hpf, 115.76 µmol/L, replicate 2, 9 embryos
[4] = 72 hpf, 173.64 µmol/L, replicate 2, 8 embryos
[5] = 72 hpf, 260.47 µmol/L, replicate 2, 10 embryos
[6] = 72 hpf, 390.70 µmol/L, replicate 2, 10 embryos
[7] = 120 hpf, 25 µmol/L, replicate 1, 25 embryos
[8] = 120 hpf, 50 µmol/L, replicate 1, 25 embryos
[9] = 120 hpf, 77.18 µmol/L, replicate 2, 11 embryos
[10] = 120 hpf, 100 µmol/L, replicate 1, 25 embryos
[11] = 120 hpf, 115.76 µmol/L, replicate 2, 9 embryos
[12] = 120 hpf, 173.64 µmol/L, replicate 2, 9 embryos
[13] = 120 hpf, 200 µmol/L, replicate 1, 25 embryos
[14] = 120 hpf, 260.47 µmol/L, replicate 2, 10 embryos
[15] = 120 hpf, 390.70 µmol/L, replicate 2, 10 embryos
[16] = 120 hpf, 400 µmol/L, replicate 1, 25 embryos
[17] = sheet DCA 96 hpf (head prints 72 hpf), 77.18 µmol/L, replicate 2, 10 embryos
[18] = sheet DCA 96 hpf (head prints 72 hpf), 115.76 µmol/L, replicate 2, 9 embryos
[19] = sheet DCA 96 hpf (head prints 72 hpf), 173.64 µmol/L, replicate 2, 8 embryos
[20] = sheet DCA 96 hpf (head prints 72 hpf), 260.47 µmol/L, replicate 2, 10 embryos
[21] = sheet DCA 96 hpf (head prints 72 hpf), 390.70 µmol/L, replicate 2, 10 embryos

Q: For `Nc1ccc(Cl)c(Cl)c1` [3,4-DCA, 3,4-dichloroaniline], which “No Surviving” value (zebrafish embryos; [2]) is on record?
A: 11

Q: And the No hatched (zebrafish embryos; [2])?
A: 9

Q: What about the “Sublethal effects Total Sublethal” value (zebrafish embryos; [2]) of the same compound?
A: 9

Q: What about the Sublethal effects tip (zebrafish embryos; [2]) of the same compound?
A: 9

Q: And the “No Surviving” value (zebrafish embryos; [3])?
A: 9

Q: And the No hatched (zebrafish embryos; [3])?
A: 7

Q: And the “Sublethal effects Total Sublethal” value (zebrafish embryos; [3])?
A: 7

Q: What about the Sublethal effects mch (zebrafish embryos; [3]) of the same compound?
A: 4

Q: What about the Sublethal effects tip (zebrafish embryos; [3]) of the same compound?
A: 7

Q: What about the “No Surviving” value (zebrafish embryos; [4]) of the same compound?
A: 8

Q: What about the No hatched (zebrafish embryos; [4]) of the same compound?
A: 7

Q: And the “Sublethal effects Total Sublethal” value (zebrafish embryos; [4])?
A: 7

Q: What about the Sublethal effects mch (zebrafish embryos; [4]) of the same compound?
A: 4

Q: What about the Sublethal effects tip (zebrafish embryos; [4]) of the same compound?
A: 7

Q: And the “No Surviving” value (zebrafish embryos; [5])?
A: 10

Q: What about the No hatched (zebrafish embryos; [5]) of the same compound?
A: 4

Q: And the “Sublethal effects EdY / EdP” value (zebrafish embryos; [5])?
A: 1

Q: And the “Sublethal effects Total Sublethal” value (zebrafish embryos; [5])?
A: 4

Q: What about the Sublethal effects mch (zebrafish embryos; [5]) of the same compound?
A: 2

Q: And the Sublethal effects tip (zebrafish embryos; [5])?
A: 4

Q: And the “No Surviving” value (zebrafish embryos; [6])?
A: 10

Q: What about the No hatched (zebrafish embryos; [6]) of the same compound?
A: 3

Q: And the “Sublethal effects EdY / EdP” value (zebrafish embryos; [6])?
A: 10

Q: And the “Sublethal effects Total Sublethal” value (zebrafish embryos; [6])?
A: 10

Q: And the Sublethal effects mch (zebrafish embryos; [6])?
A: 3

Q: What about the Sublethal effects tip (zebrafish embryos; [6]) of the same compound?
A: 3

Q: What about the Lethal effects k/f (zebrafish embryos; [7]) of the same compound?
A: 3

Q: And the “No Surviving” value (zebrafish embryos; [7])?
A: 22

Q: What about the Lethal effects k/f (zebrafish embryos; [8]) of the same compound?
A: 21

Q: And the “No Surviving” value (zebrafish embryos; [8])?
A: 4

Q: And the “No Surviving” value (zebrafish embryos; [9])?
A: 11

Q: What about the No hatched (zebrafish embryos; [9]) of the same compound?
A: 8

Q: And the “Sublethal effects EdY / EdP” value (zebrafish embryos; [9])?
A: 8

Q: What about the “Sublethal effects Total Sublethal” value (zebrafish embryos; [9]) of the same compound?
A: 8

Q: And the Sublethal effects mch (zebrafish embryos; [9])?
A: 4

Q: And the Sublethal effects nobc (zebrafish embryos; [9])?
A: 8

Q: And the Sublethal effects nomov (zebrafish embryos; [9])?
A: 8

Q: And the Sublethal effects tip (zebrafish embryos; [9])?
A: 8

Q: And the Lethal effects k/f (zebrafish embryos; [10])?
A: 25

Q: What about the “No Surviving” value (zebrafish embryos; [10]) of the same compound?
A: 0

Q: What about the Lethal effects k/f (zebrafish embryos; [11]) of the same compound?
A: 6

Q: And the “No Surviving” value (zebrafish embryos; [11])?
A: 3

Q: And the No hatched (zebrafish embryos; [11])?
A: 8

Q: What about the “Sublethal effects EdY / EdP” value (zebrafish embryos; [11]) of the same compound?
A: 2

Q: And the Sublethal effects mch (zebrafish embryos; [11])?
A: 1

Q: What about the Sublethal effects nobc (zebrafish embryos; [11]) of the same compound?
A: 2

Q: What about the Sublethal effects nomov (zebrafish embryos; [11]) of the same compound?
A: 2

Q: What about the Sublethal effects tip (zebrafish embryos; [11]) of the same compound?
A: 2

Q: And the Lethal effects k/f (zebrafish embryos; [12])?
A: 3

Q: What about the Lethal effects nohb (zebrafish embryos; [12]) of the same compound?
A: 3

Q: And the “No Surviving” value (zebrafish embryos; [12])?
A: 3

Q: What about the No hatched (zebrafish embryos; [12]) of the same compound?
A: 9

Q: What about the “Sublethal effects EdY / EdP” value (zebrafish embryos; [12]) of the same compound?
A: 3

Q: And the “Sublethal effects Ydef” value (zebrafish embryos; [12])?
A: 1

Q: And the Sublethal effects mch (zebrafish embryos; [12])?
A: 1

Q: What about the Sublethal effects nobc (zebrafish embryos; [12]) of the same compound?
A: 3

Q: What about the Sublethal effects nomov (zebrafish embryos; [12]) of the same compound?
A: 3

Q: And the Sublethal effects tip (zebrafish embryos; [12])?
A: 3

Q: And the Lethal effects k/f (zebrafish embryos; [13])?
A: 25

Q: And the “No Surviving” value (zebrafish embryos; [13])?
A: 0

Q: What about the Lethal effects k/f (zebrafish embryos; [14]) of the same compound?
A: 5

Q: And the Lethal effects nohb (zebrafish embryos; [14])?
A: 5

Q: And the “No Surviving” value (zebrafish embryos; [14])?
A: 0

Q: What about the No hatched (zebrafish embryos; [14]) of the same compound?
A: 4

Q: What about the Lethal effects k/f (zebrafish embryos; [15]) of the same compound?
A: 8

Q: What about the Lethal effects nohb (zebrafish embryos; [15]) of the same compound?
A: 2

Q: And the “No Surviving” value (zebrafish embryos; [15])?
A: 0

Q: What about the No hatched (zebrafish embryos; [15]) of the same compound?
A: 4

Q: What about the Lethal effects k/f (zebrafish embryos; [16]) of the same compound?
A: 25

Q: What about the “No Surviving” value (zebrafish embryos; [16]) of the same compound?
A: 0

Q: And the LC10 (zebrafish embryos; mortality after 48 h of exposure)?
A: 306

Q: And the LC10 (zebrafish embryos; mortality after 72 h of exposure)?
A: 14.1

Q: What about the Slope (zebrafish embryos; 48 h of exposure) of the same compound?
A: 55.5

Q: And the Slope (zebrafish embryos; 72 h of exposure)?
A: 1.53

Q: What about the “No Surviving” value (zebrafish embryos; [17]) of the same compound?
A: 10

Q: What about the No hatched (zebrafish embryos; [17]) of the same compound?
A: 8

Q: And the “Sublethal effects EdY / EdP” value (zebrafish embryos; [17])?
A: 6

Q: What about the “Sublethal effects Total Sublethal” value (zebrafish embryos; [17]) of the same compound?
A: 8

Q: And the Sublethal effects mch (zebrafish embryos; [17])?
A: 2

Q: And the Sublethal effects tip (zebrafish embryos; [17])?
A: 8

Q: What about the “No Surviving” value (zebrafish embryos; [18]) of the same compound?
A: 9

Q: What about the No hatched (zebrafish embryos; [18]) of the same compound?
A: 8

Q: And the “Sublethal effects Total Sublethal” value (zebrafish embryos; [18])?
A: 8

Q: What about the Sublethal effects mch (zebrafish embryos; [18]) of the same compound?
A: 5

Q: What about the Sublethal effects nomov (zebrafish embryos; [18]) of the same compound?
A: 5

Q: What about the Sublethal effects tip (zebrafish embryos; [18]) of the same compound?
A: 8

Q: What about the “No Surviving” value (zebrafish embryos; [19]) of the same compound?
A: 8

Q: And the “Sublethal effects Total Sublethal” value (zebrafish embryos; [19])?
A: 9

Q: What about the “Sublethal effects Ydef” value (zebrafish embryos; [19]) of the same compound?
A: 1

Q: What about the Sublethal effects mch (zebrafish embryos; [19]) of the same compound?
A: 6

Q: And the Sublethal effects nobc (zebrafish embryos; [19])?
A: 9

Q: And the Sublethal effects nomov (zebrafish embryos; [19])?
A: 9

Q: And the Sublethal effects tip (zebrafish embryos; [19])?
A: 9

Q: And the “No Surviving” value (zebrafish embryos; [20])?
A: 10

Q: And the No hatched (zebrafish embryos; [20])?
A: 4

Q: What about the “Sublethal effects EdY / EdP” value (zebrafish embryos; [20]) of the same compound?
A: 4

Q: What about the “Sublethal effects Total Sublethal” value (zebrafish embryos; [20]) of the same compound?
A: 4

Q: And the Sublethal effects mch (zebrafish embryos; [20])?
A: 2

Q: What about the Sublethal effects nobc (zebrafish embryos; [20]) of the same compound?
A: 4

Q: And the Sublethal effects nomov (zebrafish embryos; [20])?
A: 4

Q: And the Sublethal effects tip (zebrafish embryos; [20])?
A: 4

Q: And the Lethal effects k/f (zebrafish embryos; [21])?
A: 1

Q: What about the Lethal effects nohb (zebrafish embryos; [21]) of the same compound?
A: 9

Q: What about the “No Surviving” value (zebrafish embryos; [21]) of the same compound?
A: 0

Q: What about the No hatched (zebrafish embryos; [21]) of the same compound?
A: 4

Q: And the LC50 (in vivo; LC50 (48–120 hpf), mortality, embryos exposed 48–120 hpf)?
A: 29.4 µM

Q: And the LC50 (in vivo; LC50, mortality after 48 h of exposure, S2 Fig, unit inferred)?
A: 319 µM

Q: What about the LC50 (in vivo; LC50, mortality after 72 h of exposure, S2 Fig, unit inferred) of the same compound?
A: 59.4 µM

Q: And the “Log D (pH 7.4)” value [1]?
A: 2.6
